# Test results as given in US20260109712A1, “RIFAMYCINS FOR NONTUBERCULOUS MYCOBACTERIA” (priority 2022, published 2026).
# Assays:
# Δarr M. abscessus = test: MIC assay, isogenic arr-deleted strain; format: cell-based, Mycobacterium abscessus; conditions: Table 10
# Protocol: (§1) MIC determination was carried out in 96-well plate format as previously described.^[13-14] 96-well plates were initially set up with 100 μL of 7H9 per well. For each compound, a ten-point two-fold dilution series starting at twice the desired highest concentration was dispensed onto the 96-well plates using a Tecan D300e Digital Dispenser, with the DMSO concentration normalized to 2%. M. abscessus culture grown to mid-log phase (OD600=0.4-0.6) was diluted to OD600=0.1 (1×10^7 CFU/mL). […] Untreated control wells are included on each plate that contain bacteria suspension and 1% DMSO. Plates were sealed with parafilm, stored in boxes with wet paper towels and incubated at 37° C. with shaking (110 RPM). Plates were incubated for 3 days. To determine growth, OD600 was measured using a Tecan Infinite M200 plate reader on Day 0 and Day 3. Two biological replicates were performed. Clarithromycin was included in each experiment as a positive control.
# (§2) For each well on the 96-well plate, bacterial growth was calculated by subtracting the Day 0 OD600 value from the Day 3 OD600 value. […] For compound-containing wells, percentage growth was calculated by dividing their growth values by the average drug-free bacterial growth for the compound series and multiplying by 100. For each compound series, we plotted percentage growth versus compound concentration.
# M. abscessus ATCC 19977 = test: MIC assay in 96-well plate format, wild-type strain; format: cell-based, Mycobacterium abscessus; conditions: for MICWT: Table 10; for MIC: Table 15, heterocyclic aromatic carbamates, read-out: WT Mab MIC
# Protocol: as §1, §2
# [1] = Plasma protein binding assay (rapid equilibrium dialysis); format: in vitro ADME
# Protocol: DMSO stocks were spiked into plasma to a concentration of 10,000 ng/mL. 200 μL of spiked plasma was pipetted into the sample chamber of the rapid equilibrium dialysis (RED) cartridge. 350 μL of PBS was added to the adjacent cartridge. The plate containing the RED was sealed and incubated at 37° C. on the thermomixer at 300 RPM for 4 h. After incubation, 50 μL aliquots of plasma were removed and added to 50 μL of blank plasma in a deep well plate (1:1). Similarly, 50 μL aliquots of PBS were removed and added to 50 μL of blank plasma. This created an identical matrix between buffer and non-buffer samples. Samples were processed and quantified as specified in the LC-MS/MS analytical method.
SMILES,MICΔorr (Δarr M. abscessus),MICWT (M. abscessus ATCC 19977),plasma unbound fraction ([1]; Table 10),MIC (M. abscessus ATCC 19977),ƒu [1],plasma unbound fraction ([1]; plasma)
CO[C@H]1/C=C/O[C@@]2(C)Oc3c(C)c(O)c4c(c3C2=O)C2=NC3(CCN(CC(C)C)CC3)NC2=C(NC(=O)/C(C)=C/C=C/[C@H](C)[C@H](O)[C@@H](C)[C@@H](O)[C@@H](C)[C@H](OC(=O)c2ccccc2F)[C@@H]1C)C4=O [UMN23],0.058 µM,0.06 µM,0.05%,–,–,–
CO[C@H]1/C=C/O[C@@]2(C)Oc3c(C)c(O)c4c(c3C2=O)C2=NC3(CCN(CC(C)C)CC3)NC2=C(NC(=O)/C(C)=C/C=C/[C@H](C)[C@H](O)[C@@H](C)[C@@H](O)[C@@H](C)[C@H](OC(=O)c2ccccc2Cl)[C@@H]1C)C4=O [UMN24],0.049 µM,0.043 µM,0.06%,–,–,–
COc1ccccc1C(=O)O[C@H]1[C@H](C)[C@H](O)[C@H](C)[C@@H](O)[C@@H](C)/C=C/C=C(\C)C(=O)NC2=C3NC4(CCN(CC(C)C)CC4)N=C3c3c(c(O)c(C)c4c3C(=O)[C@@](C)(O/C=C/[C@H](OC)[C@H]1C)O4)C2=O [UMN29],0.03 µM,0.03 µM,0.22%,–,–,–
CO[C@H]1/C=C/O[C@@]2(C)Oc3c(C)c(O)c4c(c3C2=O)C2=NC3(CCN(CC(C)C)CC3)NC2=C(NC(=O)/C(C)=C/C=C/[C@H](C)[C@H](O)[C@@H](C)[C@@H](O)[C@@H](C)[C@H](OC(=O)Nc2cccc(C)c2)[C@@H]1C)C4=O [UMN35],0.036 µM,0.034 µM,0.05%,–,–,–
CO[C@H]1/C=C/O[C@@]2(C)Oc3c(C)c(O)c4c(c3C2=O)C2=NC3(CCN(CC(C)C)CC3)NC2=C(NC(=O)/C(C)=C/C=C/[C@H](C)[C@H](O)[C@@H](C)[C@@H](O)[C@@H](C)[C@H](OC(=O)Nc2ccccc2-c2ccccc2)[C@@H]1C)C4=O [UMN36],0.05 µM,0.035 µM,–,0.035 µM,0.02%,0.02%
COc1ccc(NC(=O)O[C@H]2[C@H](C)[C@H](O)[C@H](C)[C@@H](O)[C@@H](C)/C=C/C=C(\C)C(=O)NC3=C4NC5(CCN(CC(C)C)CC5)N=C4c4c(c(O)c(C)c5c4C(=O)[C@@](C)(O/C=C/[C@H](OC)[C@H]2C)O5)C3=O)cc1 [UMN37],0.034 µM,0.031 µM,0.15%,–,–,–
CO[C@H]1/C=C/O[C@@]2(C)Oc3c(C)c(O)c4c(c3C2=O)C2=NC3(CCN(CC(C)C)CC3)NC2=C(NC(=O)/C(C)=C/C=C/[C@H](C)[C@H](O)[C@@H](C)[C@@H](O)[C@@H](C)[C@H](OC(=O)Nc2ccccc2C)[C@@H]1C)C4=O [UMN39],0.017 µM,0.014 µM,–,0.014 µM,0.1%,0.13%
CO[C@H]1/C=C/O[C@@]2(C)Oc3c(C)c(O)c4c(c3C2=O)C2=NC3(CCN(CC(C)C)CC3)NC2=C(NC(=O)/C(C)=C/C=C/[C@H](C)[C@H](O)[C@@H](C)[C@@H](O)[C@@H](C)[C@H](OC(=O)N2CCNCC2)[C@@H]1C)C4=O [UMN86],0.10 µM,0.11 µM,–,–,–,–
CO[C@H]1/C=C/O[C@@]2(C)Oc3c(C)c(O)c4c(c3C2=O)C2=NC3(CCN(CC(C)C)CC3)NC2=C(NC(=O)/C(C)=C/C=C/[C@H](C)[C@H](O)[C@@H](C)[C@@H](O)[C@@H](C)[C@H](OC(=O)NC2CC(C)(C)N(Cc3ccccc3)C(C)(C)C2)[C@@H]1C)C4=O [UMN87],0.30 µM,0.23 µM,–,–,–,–
CO[C@H]1/C=C/O[C@@]2(C)Oc3c(C)c(O)c4c(c3C2=O)C2=NC3(CCN(CC(C)C)CC3)NC2=C(NC(=O)/C(C)=C/C=C/[C@H](C)[C@H](O)[C@@H](C)[C@@H](O)[C@@H](C)[C@H](OC(=O)NC2CC(C)(C)N(C)C(C)(C)C2)[C@@H]1C)C4=O [UMN91],0.10 µM,0.11 µM,–,–,–,–
